{
  "source": "paper PMC8262356",
  "about": "“SLC26A6-selective inhibitor identified in a small-molecule screen blocks fluid absorption in small intestine” (JCI Insight, 2021)",
  "key": {"[1]": {"assay": "Solubility", "format": "physicochemical"}, "[2]": {"system": "mouse ileal closed loops", "assay": "Closed ileal loop fluid absorption", "format": "in vivo", "description": "(§1) For fluid absorption studies in small intestine, mice were given free access to 5% dextrose in water but not solid food for 24 hours before experiments. Closed midjejunal and ileal loops were prepared and isolated as described previously ([29]). Mice were anesthetized with isoflurane, and body temperature was maintained during surgery at 36°C–38°C using a heating pad. A small abdominal incision was made to expose small intestine for isolation of 3–4 closed small intestinal loops (jejunum or ileum, length 2–3 cm) with sutures. Loops were injected with 100 μL PBS (pH 7.4, 137 mM NaCl, 2.7 mM KCl, 8 mM Na2HPO4, 1.8 mM KH2PO4, 1 mM CaCl2, 0.5 mM MgCl2) containing 30 μM PAT1inh-B01, 10 μM DRAinh-A270, or 10 μM tenapanor (MedChemExpress) (or vehicle, 0.1% DMSO in PBS). In some experiments, 30 μM PAT1inh-B01 and 10 μM DRAinh-A270 were used together. In some experiments to rule out effects of sodium-dependent phosphate transport, the loop lumen contained HEPES-buffered saline (pH 7.4, 137 mM NaCl, 4.5 mM KCl, 10 mM HEPES, 1 mM CaCl2, 0.5 mM MgCl2). The abdominal incision was closed with sutures, and mice were allowed to recover from anesthesia. Intestinal loops were removed at 0 and 30 minutes (in separate mice), and loop length and weight were measured to quantify fluid absorption. In parallel experiments, CF mice were used and loop studies were done as described above. In some experiments, loop fluid was emptied with a syringe, and pH was measured immediately using AB15 pH meter after brief centrifugation at 2000 g for 5 minutes at 4°C."}, "[3]": {"system": "TMEM16A", "assay": "Selectivity: I- influx in FRT cells coexpressing YFP and TMEM16A", "format": "cell-based", "conditions": "25 μM", "description": "(§2) PAT1inh-B01 selectivity was studied by testing its effects on related SLC26A family anion transporters and the Cl^– channel TMEM16A. These measurements used a similar Cl^–/I^– exchange protocol, but FRT cells separately expressed each of the SLC26A family members or TMEM16A. […] PAT1inh-B01 selectivity was also tested by short-circuit current (Isc) in well-differentiated human bronchial epithelial (HBE) cells, which have a complex ion transport mechanism that includes cystic fibrosis transmembrane conductance regulator (CFTR), epithelial Na^+ channel (ENaC), and Ca^+2-activated chloride channels (CaCCs) ([13]). […] Potential PAT1inh-B01 cytotoxicity was studied in FRT cells.\n(§3) Figure 3 PAT1inh-B01 selectivity and cytotoxicity. […] Cl^–/I^– exchange or I^– influx measured in FRT cells coexpressing YFP and SLC26A isoforms or TMEM16A, with data shown for 25 μM PAT1inh-B01, DMSO vehicle control, and 500 μM niflumic acid (positive control for SLC26A transporters) or 10 μM TMinh-23 (positive control for TMEM16A). […] (C) (left) Short-circuit current (Isc) in well-differentiated HBE cells measured in the absence (top) and presence (bottom) of 25 μM PAT1inh-B01. […]\n(§4) YFP-based cellular assays of slc26a3, slc26a4, SLC26A9, and TMEM16A function were performed as described previously ([7]). […] The activities of ENaC, CFTR, and CaCC were determined using well-differentiated HBE cells as described previously ([13]). […]"}, "[4]": {"system": "mouse distal colonic closed loops", "assay": "Closed distal colonic loop fluid absorption", "format": "in vivo", "conditions": "30 μM luminal", "description": "For fluid absorption studies in colon, mice were given free access to 5% dextrose in water but not solid food for 48 hours. Mice were treated with 500 μL mineral oil twice a day rectally (final dose 16 h before surgery) during this period to evacuate the colon. Closed distal colonic loops (length 1.5–2 cm, 1 loop per mouse) were isolated as described previously ([7]). Loops were injected with 100 μL PBS with 30 μM PAT1inh-B01, 10 μM DRAinh-A270, or 10 μM tenapanor (or vehicle). In some experiments, 30 μM PAT1inh-B01 and 10 μM DRAinh-A270 were used together. Colonic loops were removed at 0 and 60 minutes (in separate mice), and loop length and weight were measured to quantify fluid absorption."}, "[5]": {"system": "CaCC", "assay": "Short-circuit current in well-differentiated HBE cells, ATP response", "format": "cell-based, human", "conditions": "25 μM pretreatment", "description": "as §2, §3, §4"}, "[6]": {"system": "ileal closed loops in cystic fibrosis (CF) mice (homozygous F508del)", "assay": "Closed ileal loop fluid absorption in CF mice", "format": "in vivo, mouse", "conditions": "30 μM luminal", "description": "as §1"}},
  "data": [
    {"smiles": "Cc1c(Br)c(C(F)(F)F)nn1CC(=O)N1CCc2nc3cc(-c4ccccc4)[nH]n3c(=O)c2C1", "note": "[PAT1inh-B01]", "values": [
      {"measurement": "solubility", "setting": "[1]", "result": "favorable"},
      {"measurement": "effect on ileal fluid absorption (loop weight-to-length ratio)", "setting": "[2]; 30 μM luminal, 30 minutes, PBS", "result": "fully blocked"},
      {"measurement": "effect on increase of ileal loop fluid pH", "setting": "[2]; 30 minutes after injection of PBS (pH 7.4), control pH greater than 8.0", "result": "prevented"},
      {"measurement": "effect on ileal fluid absorption in absence of luminal phosphate", "setting": "[2]; HEPES-buffered saline", "result": "effectively blocked"},
      {"measurement": "block of fluid absorption in ileal loops", "setting": "[2]; ileal loops (abstract)", "result": "> 80", "unit": "%"},
      {"measurement": "inhibition of TMEM16A", "setting": "[3]", "result": "did not significantly inhibit"},
      {"measurement": "effect on colonic fluid absorption (loop weight-to-length ratio)", "setting": "[4]", "result": "did not inhibit"},
      {"measurement": "effect on CaCC activity (Isc response to ATP)", "setting": "[5]", "result": "no significant effect"},
      {"measurement": "effect on fluid absorption from ilea of CF mice", "setting": "[6]", "result": "completely blocked"}
    ]}
  ]
}
